Test results: patent publication US9624167B2, “N-(4-hydroxy-4-methyl-cyclohexyl)-4-phenyl-benzenesulfonamides and N-(4-hydroxy-4-methyl-cyclohexyl)-4-(2-pyridyl)benzenesulfonamides and their therapeutic use” (PIMCO 2664 LIMITED, priority 2013, dated 2017)
pIC50: −log10 of the molar value.

Key:
Format in all cases: cell-based
[1] = system: GADD45a-GFP reporter in TK6 human lymphoblastoid cell line; assay: GreenScreen HC genotoxicity (GADD45a-GFP reporter); conditions: GreenScreen HC, positive or negative
Text: (§1) GreenScreen HC is a mammalian cell-based assay for measuring the genotoxicity and cytotoxicity of chemical compounds and mixtures.
The term genotoxic is used to describe substances that are capable of causing damage to genetic material (DNA) within a cell, which may ultimately have mutagenic, carcinogenic or teratogenic effects in humans.
The GreenScreen assay reports genotoxic stress as an increase in fluorescence from a genetically modified derivative of the p53-competent TK6 human lymphoblastoid cell line. In the modified cells, regulatory DNA sequences which promote the transcription of the GADD45a gene control the expression of Green Fluorescent Protein (GFP). GADD45a has a central role in genomic integrity, and genotoxic stress induces its transcription. Exposure to a genotoxic compound therefore increases the expression of GFP, which is observed as an increase in fluorescence and which is monitored by fluorescent detection using a plate reader or flow cytometer. In the GreenScreen HC assay fluorescence is normalised to the optical absorbance measurement to correct for variation in cell yield caused by loss of cell viability or cytotoxicity. The statistically defined threshold for a positive result in the GreenScreen HC assay is 1.5, i.e., 50% induction over and above the baseline for the vehicle-treated control.
(§2) A dilution series of each test compound is generated in parallel in a 96-well, black microplate with an optically clear base. A standard genotoxic compound (methyl methanesulfonate, MMS) is added as an intra-plate quality control check. The plates are analysed at 24 hour and 48 hour time points using a microplate reader, which provides measurements of light absorbance and fluorescence for cells and solutions in the microplates wells.
(§3) In addition to measurements of cell viability and genotoxicity described above, the GreenScreen assay incorporates an assessment of the effects of metabolic activation in the assay, the “GreenScreen HC S9 assay”. To accomplish this, the cells are incubated both in the presence of and absence of the post-mitochondrial supernatant liver extract (known as “S9”). S9 is routinely used in genetic toxicology to supplement the test cells with mammalian phase I metabolism. To assess metabolic activation, compounds are incubated with the TK6 strain in the presence of 1% v/v S9 fraction mix for 3 hours with a subsequent 45 hour recovery time. After the recovery period, the GFP fluorescence signal and cell viability (assessed by propidium iodide uptake) are measured using a flow cytometer. Cyclophosphamide, a commonly used control in genotoxicity studies utilising metabolic activation, is used as the positive control in the assay. In the GreenScreen HC S9 assay, genotoxicity is evaluated by induction in GFP expression quantified using the mean sample fluorescence and cytotoxicity using the propidium iodide uptake assay described above. The statistically defined threshold for a positive genotoxicity result is 1.3, i.e. 30% induction over and above the baseline for the vehicle-treated control and the result is reported as positive or negative. Cytotoxic compounds are those that show an observed decrease in relative population survival below a significance threshold set at 90% compared to vehicle-treated control, at one or more test concentrations.
(§4) Stably transfected reporter cell lines were derived from the p53-competent human lymphoblastoid TK6 cell line. The reporter cell line carries an episomally replicating plasmid bearing the upstream promoter region and other regulatory sequences of the human GADD45a gene linked to a human optimised Green Fluorescent Protein (GFP) gene. The control cell line carries an identical plasmid except for the removal of 4 base pairs at the start of the EGFP gene, such that GFP is not produced. […]

J774 macrophages = assay: Resazurin Macrophage J774 Viability Assay; conditions: Mus musculus, 12 point concentration range 10 μM to 0.5 nM, n = 4 replicates, mean of 3 independent experiments, 72 hour incubation, read-out: IC50 (2)
[2] = system: TK6 human lymphoblastoid cell line; assay: GreenScreen HC cytotoxicity (propidium iodide uptake); conditions: for Cytotoxicity, LEC, 48 h, −S9: absence of S9 fraction; for Cytotoxicity, LEC, 48 h, +S9: presence of S9 fraction; for Cytotoxicity, LEC, 24 h: lowest effective concentration for loss of cell viability
Description: as §1
Cytotoxicity is measured in the GreenScreen assay alongside genotoxicity and the results of the cytotoxicity assessment are used to normalise the genotoxicity measurements as described above.
In the GreenScreen HC assay, cell viability is assessed using a propidium iodide uptake assay. Propidium iodide is an intercalating agent and a fluorescent molecule that can be used to stain cells. It is commonly used to quantitatively assess DNA content to evaluate cell viability or DNA content in cell cycle analysis and can be used to differentiate necrotic, apoptotic and normal cells (see, e.g., Dengler et al., 1995, Anticancer Drugs, Vol. 6, No. 4, pp. 522-532). Exposure to a cytotoxic compound increases the uptake of propidium iodide, which is monitored by optical absorbance and is proportional to […]. Cytotoxic compounds are those that show an observed decrease in relative population survival below a significance threshold set at 90% compared to vehicle-treated control, at one or more test concentrations.
as §2, §3
as §4, with “produced. Both plasmids also carry a gene conferring resistance to hygromycin B to the cell line, allowing continued selection for plasmid presence (200 μg/mL hygromycin B; Invitrogen Corporation, Carlsbad, Calif.).” for “produced.”

| Compound | Genotoxicity [1] | pIC50 (J774 macrophages) | Cytotoxicity, LEC, 48 h, −S9 [2] [µM] | Cytotoxicity, LEC, 48 h, +S9 [2] [µM] | Cytotoxicity, LEC, 24 h [2] [µM] |
| --- | --- | --- | --- | --- | --- |
| C[C@]1(O)CC[C@@H](NS(=O)(=O)c2ccc(-c3c(F)cc(F)cc3F)cc2)CC1 [HMC-C-03-B, 2′,4′,6′-Trifluoro-N-((1s,4s)-4-hydroxy-4-methylcyclohexyl)-[1,1′-biphenyl]-4-sulfonamide] | Positive | 6.70 | 0.08 | 10.8 | 0.17 |
| C[C@]1(O)CC[C@H](NS(=O)(=O)c2ccc(-c3ncc(Cl)cc3Cl)cc2)CC1 [HMC-N-03-A, 4-(3,5-Dichloropyridin-2-yl)-N-((1r,4r)-4-hydroxy-4-methylcyclohexyl)benzenesulfonamide] | Negative | 6.21 | 0.24 | 30 | 0.94 |
